The results in this text go back to ChEMBL document CHEMBL3785026, “Pharmacokinetics of erythromycin in patients with severe cirrhosis. Respective influence of decreased serum binding and impaired liver metabolic capacity” (Br J Clin Pharmacol, 1987).

The test system of series [1] is Homo sapiens. The series is described as follows: Unbound renal drug clearance in healthy human subjects (6 subjects) at 500 mg, iv by Sarcina lutea based bioassay. The class given is ADME, organism-based, Kidney. The settings on record: in vivo.
The test system of series [2] is Homo sapiens. The series is described as follows: Unbound renal drug clearance in patient with severe cirrhosis (5 patients) at 500 mg, iv by Sarcina lutea based bioassay. Conditions: in vivo. The format is ADME, organism-based, Kidney.
Series [3] in a line: Volume of distribution at steady state in patient with severe cirrhosis (5 patients) at 500 mg, iv by Sarcina lutea based bioassay. The format is ADME, organism-based. The settings on record: human, in vivo, read-out: Vdss.
A short description of series [4]: Unbound fraction in serum of patient with severe cirrhosis (5 patients) at 500 mg, iv by Sarcina lutea based bioassay. The class given is ADME, organism-based. Conditions: human.
A short description of series [5]: Unbound fraction in serum of healthy human subjects (6 subjects) at 500 mg, iv by Sarcina lutea based bioassay. The class given is ADME, organism-based.
Series [6] can be described thus: Volume of distribution at steady state in healthy human subjects (6 subjects) at 500 mg, iv by Sarcina lutea based bioassay. The format is ADME, organism-based. Conditions: in vivo, read-out: Vdss.
A short description of series [7]: Total drug clearance in patient with severe cirrhosis (5 patients) at 500 mg, iv by Sarcina lutea based bioassay. The format is ADME, organism-based. Conditions: human, in vivo.
Series [8] can be described thus: Total drug clearance in healthy human subjects (6 subjects) at 500 mg, iv by Sarcina lutea based bioassay. The format is ADME, organism-based. Conditions: in vivo.
Series [9] deals with Homo sapiens. The experiment in a line: Unbound drug clearance in patient with severe cirrhosis (5 patients) at 500 mg, iv by Sarcina lutea based bioassay. The class given is ADME, organism-based. Conditions: in vivo.
For series [10], the system named is Homo sapiens. The experiment in a line: Unbound drug clearance in healthy human subjects (6 subjects) at 500 mg, iv by Sarcina lutea based bioassay. The format is ADME, organism-based. The settings on record: in vivo.
In series [11] the test system is Homo sapiens. The series is described as follows: Unbound non-renal drug clearance in patient with severe cirrhosis (5 patients) at 500 mg, iv by Sarcina lutea based bioassay. The class given is ADME, organism-based. The settings on record: in vivo.
Series [12] deals with Homo sapiens. The series is described as follows: Unbound non-renal drug clearance in healthy human subjects (6 subjects) at 500 mg, iv by Sarcina lutea based bioassay. The format is ADME, organism-based. The settings on record: in vivo.
Series [13] is described as follows: Terminal half life in patient with severe cirrhosis (5 patients) at 500 mg, iv by Sarcina lutea based bioassay. The class given is ADME, organism-based. Conditions: human, in vivo, read-out: beta t1/2 (converted).
A short description of series [14]: Terminal half life in healthy human subjects (6 subjects) at 500 mg, iv by Sarcina lutea based bioassay. The format is ADME, organism-based. Conditions: in vivo, read-out: beta t1/2 (converted).

Molecules are shown by their SMILES.

What is called fraction unbound is free concentration divided by total concentration. A higher fraction unbound goes with much free substance. As a reminder, the clearance is the volume of plasma or blood freed of the substance per unit of time. Lower therefore signals a low capacity for elimination. In the case of `CC[C@H]1OC(=O)[C@H](C)[C@@H](O[C@H]2C[C@@](C)(OC)[C@@H](O)[C@H](C)O2)[C@H](C)[C@@H](O[C@@H]2O[C@H](C)C[C@H](N(C)C)[C@H]2O)[C@](C)(O)C[C@@H](C)C(=O)[C@H](C)[C@@H](O)[C@]1(C)O.O=C(O)[C@H](O)[C@@H](O)[C@H](O[C@@H]1O[C@H](CO)[C@@H](O)[C@@H](O)[C@H]1O)[C@H](O)CO`, the CL free is 14.5 L/h in the series with Homo sapiens [1]; 11.2 L/h in the series on Homo sapiens [2]; 42.2 L/h in the series with Homo sapiens [9]; 113.2 L/h with Homo sapiens [10]; 31.6 L/h with Homo sapiens [11]; 98.6 L/h in the series on Homo sapiens [12]. The Vd in [3] amounted to 85.5 L; in series [6], 57.6 L. Further, the fraction unbound in series [4] amounted to 0.583; in [5], 0.305. Also, the clearance is 403 mL/min in series [7] and 570 mL/min in [8]. Also, the half-life in series [13] was 2.24 h; in [14], 1.36 h.
